Measured values published in article PMC6719955, “HPLC-ESI-qTOF-MS/MS Characterization, Antioxidant Activities and Inhibitory Ability of Digestive Enzymes with Molecular Docking Analysis of Various Parts of Raspberry (Rubus ideaus L.)” (Antioxidants, 2019).
Read-outs that look alike come from different tables or passages of the source.

Legend:
α-glucosidase [1] = conditions: cited from earlier work
α-glucosidase [2] = assay: α-Glucosidase inhibition activity assay (p-NPG); format: biochemical, Saccharomyces cerevisiae; conditions: 1 U/mL enzyme, pH 6.8, 37 °C
From the text: (§1) The Folin–Ciocalteu phenol reagent and chemicals used for the antioxidant activity assay were purchased from Aladdin Industrial Corporation (Shanghai, China). Phenolic standards, trolox, p-Nitrophenyl-α-D-glucopyranoside (p-NPG, > 99.8%), porcine pancreatic α-amylase (13 U/mg), and α-glucosidase (≥ 58 U/mg solid) from Saccharomyces cerevisiae were all purchased from Sigma-Aldrich (St. Louis, MO, USA). Analytical-grade materials were purchased from Guangzhou Reagent Co. (Guangzhou, China). Formic acid and acetonitrile used for the HPLC analysis were of chromatography grade. Water was purified by the Milli-Q (Millipore, MA, USA) system and filtered through membranes with a pore size of 0.22 μm before use.
The inhibitory activity of α-glucosidase was performed as the previous reported method with modifications. Briefly, 100 μL of the extracts’ dilutions and 100 μL of 1 U/mL α-glucosidase in 0.1 M phosphate buffer solution (pH 6.8) was mixed and pre-incubated at 37 °C for 10 min. Then, 100 μL of 5 mM p-NPG solution was added, and the reaction solution was incubated for another 20 min. The reaction was terminated by adding 500 μL of 0.2 M Na2CO3 solution. The absorbance at 405 nm was recorded. […] The inhibitory potency (%) was calculated by Equation (3). (3) α-Glucosidase inhibitory potency (%) = [1−ΔAs/ΔAc]×100 where ΔAs = Aextract+enzyme − Aextract, ΔAc = Abuffer+enzyme − Abuffer.

[3] = parameters: method as in Malinda et al. (2017) [34]; conditions: ref Malinda et al. (2017) [34]; cited from earlier work
[4] = target: T1, porcine pancreatic α-amylase (Sus scrofa, UniProt P00690); assay: α-Amylase inhibition activity assay (starch/DNS); format: biochemical; conditions: 0.5 mg/mL enzyme, pH 6.8, 37 °C
T1 construct: purchased Sigma-Aldrich
T1 sequence (P00690 16-511): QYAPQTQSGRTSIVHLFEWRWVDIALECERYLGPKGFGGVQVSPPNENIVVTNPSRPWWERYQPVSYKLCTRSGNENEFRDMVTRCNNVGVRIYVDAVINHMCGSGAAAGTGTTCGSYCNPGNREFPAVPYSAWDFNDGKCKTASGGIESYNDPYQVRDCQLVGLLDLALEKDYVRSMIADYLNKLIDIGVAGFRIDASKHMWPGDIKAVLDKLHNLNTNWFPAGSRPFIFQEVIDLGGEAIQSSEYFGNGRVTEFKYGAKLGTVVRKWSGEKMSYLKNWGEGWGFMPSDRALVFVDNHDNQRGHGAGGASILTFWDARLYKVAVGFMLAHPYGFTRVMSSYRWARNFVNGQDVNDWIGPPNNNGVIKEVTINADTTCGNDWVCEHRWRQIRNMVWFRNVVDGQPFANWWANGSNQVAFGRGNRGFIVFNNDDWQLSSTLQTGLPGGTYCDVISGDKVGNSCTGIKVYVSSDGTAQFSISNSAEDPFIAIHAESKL
From the text: as §1, with “Phenolic standards, trolox, p-Nitrophenyl-α-D-glucopyranoside (p-NPG, > 99.8%), porcine pancreatic α-amylase (13 U/mg), and α-glucosidase (≥ 58 U/mg solid) from Saccharomyces cerevisiae were all purchased from Sigma-Aldrich (St. Louis, MO, USA).” left out

[5] = DPPH radical scavenging activity assay; conditions: extracts made with 50% methanol
Description: DPPH assay was measured based on the method described earlier. The absorbance at 517 nm was recorded by a microplate reader (SpectraMax M5 Molecular Device, CA, USA). Trolox or Vc solution (5–100 μg/mL) were served as positive controls. […] (1) DPPH radical scavenging activity (%) = (1−As−Ab/Ac)×100 where As = the absorbance of the sample extracts with DPPH solution, Ab = the absorbance of the sample extracts without DPPH solution, Ac = the absorbance of DPPH solution.

[6] = ABTS cation radical scavenging activity assay; conditions: extracts made with 50% methanol
Description: ABTS assay was determined according to the method of Wang et al. (2017). The absorbance at […] was recorded by the microplate reader. Trolox or Vc solution (5–100 μg/mL) was served as positive controls. The scavenging activity (%) was calculated by Equation (2). (2) ABTS^+ radical scavenging activity (%) = (1−As−Ab/Ac)×100 where As = the absorbance of the extracts with ABTS^+ solution, Ab = the absorbance of the extracts without ABTS^+ solutionl, Ac = the absorbance of ABTS^+ solution.

[7] = Hydroxyl (OH^−) radical scavenging activity assay; conditions: extracts made with 50% methanol
Description: The scavenging activity of OH[…] radicals was measured based on the method described by Liu et al., 2017 [19]. The reaction mixture included 100 μL of the extracts’ dilutions, 100 μL of 6 mM […] solution, and 100 μL of 2.4 mM H2O2. After 10 min of incubation at 25°C, the mixture was incubated with 100 μL of 6 mM salicylic acid at 25 °C for 30 min, then the absorbance at 510 nm was measured. A Trolox or Vc solution (5–100 μg/mL) served as the positive control.

[8] = constituents in raspberry, ref Zhang et al. (2010) [39]

Row | SMILES | α-glucosidase inhibitory capacity (α-glucosidase [1]; [8]) | α-glucosidase inhibition IC50 (α-glucosidase [2]) | DPPH radical scavenging activity IC50 [3] | DPPH radical scavenging IC50 [5] | OH^− free radical scavenging IC50 [7] | other results
1 | O=c1oc2c(O)c(O)cc3c(=O)oc4c(O)c(O)cc1c4c23 [EA, Ellagic acid] | weakest | 976.32 ± 41.72 µg/mL | 4.80 µg/mL |  |  | 
2 | O=C(O)c1cc(O)c(O)c(O)c1 [GA, Gallic acid] | strong | 590.34 ± 15.71 µg/mL | 2.24 µg/mL |  |  | 
3 | Oc1cc(O)c2c(c1)O[C@H](c1ccc(O)c(O)c1)[C@@H](O)[C@@H]2c1c(O)cc(O)c2c1O[C@H](c1ccc(O)c(O)c1)[C@@H](O)[C@@H]2c1c(O)cc(O)c2c1O[C@H](c1ccc(O)c(O)c1)[C@@H](O)C2 [PC, Procyanidin C3] |  | 93.37 ± 5.79 µg/mL |  |  |  | α-glucosidase inhibitory capacity (α-glucosidase [1]; ref Wang et al. (2018) [38]): strong; α-amylase inhibition IC50 [4]: 92.31 ± 3.51 µg/mL
4 | Cc1c(C)c2c(c(C)c1O)CCC(C)(C(=O)O)O2 (stereo not drawn) [Trolox] |  |  |  | 39.90 ± 0.67 µg/mL | 33.91 ± 1.82 µg/mL | ABTS^+ free radical scavenging IC50 [6]: 41.50 ± 1.97 µg/mL
5 | O=C1O[C@H]([C@@H](O)CO)C(O)=C1O [Vc, ascorbic acid] |  |  |  | 16.80 ± 1.31 µg/mL | 19.83 ± 0.37 µg/mL | 
6 | C[C@@H]1O[C@@H](OC[C@H]2O[C@@H](Oc3c(-c4ccc(O)c(O)c4)oc4cc(O)cc(O)c4c3=O)[C@H](O)[C@@H](O)[C@@H]2O)[C@H](O)[C@H](O)[C@H]1O [rutin, Rutin] | strong |  |  |  |  | 
